Data on seven molecules can be found in patent publication US20050214328A1, “Methods of using and compositions comprising immunomodulatory compounds for the treatment and management of skin diseases or disorders” (priority 2004, published 2005).

Broadly, the IC50 is the midpoint of a concentration-inhibition curve.

In brackets after ≈: the same amount, converted by molar mass. Several values for one entry are separate records, joined by “and”; a condition that tells them apart may be missing. Identical values can stand only once.

One series deals with TNF-α mRNA. Description: Degradation of TNF-α mRNA. The class given is cell-based. Conditions: in vitro. An excerpt: (§1) The pharmacological properties of 3-(4-amino-1-oxo-1,3-dihydro-isoindol-2-yl)-piperidine-2,6-dione or 4-(amino)-2-(2,6-dioxo-(3-piperidyl))-isoindoline-1,3-dione, including activity comparisons with thalidomide, are characterized in in vitro studies. Studies examined the effects of 3-(4-amino-1-oxo-1,3-dihydro-isoindol-2-yl)-piperidine-2,6-dione, 4-(amino)-2-(2,6-dioxo-(3-piperidyl))-isoindoline-1,3-dione or thalidomide on the production of various cytokines.

Series [1] relates to TNF-α. Description: Inhibition of TNF-α production following LPS-stimulation of human PBMC. Particulars: for IC50: human PBMC, LPS, read-out: IC50 for inhibiting production of TNF-α following LPS-stimulation of PBMC; for secretion of the pro-inflammatory cytokine TNF-α: in vitro. The class given is cell-based.
From the text: as §1
(§2) Inhibitions of TNF-α production following LPS-stimulation of human PBMC and human whole blood by an immunomodulatory compound such as 3-(4-amino-1-oxo-1,3-dihydro-isoindol-2-yl)-piperidine-2,6-dione, 4-(amino)-2-(2,6-dioxo-(3-piperidyl))-isoindoline-1,3-dione or thalidomide were investigated in vitro.

The next series relates to IL10. Description: Production of anti-inflammatory cytokine IL10 by PBMC. It is filed as cell-based. Conditions: for production of the anti-inflammatory cytokine IL10: PBMC; for secretion of the anti-inflammatory cytokine IL10: in vitro.
From the text: as §1

Another series deals with acne. Description: Clinical study in acne. The class given is in vivo, human. Conditions: oral about 5 mg daily, continuous. Here is the method:
3-(4-Amino-1-oxo-1,3-dihydro-isoindol-2-yl)-piperidine-2,6-dione or 4-(amino)-2-(2,6-dioxo-(3-piperidyl))-isoindoline-1,3-dione is administered in an amount of from about 1 to about 25 mg per day to treat acne. Patients receive continuous treatment with the compound at a oral dose of about 5 mg daily.

Another series has as its system wrinkles. The series can be described thus: Clinical study in patients with wrinkles. The class given is in vivo, human. Particulars: oral about 5 mg daily, continuous. How it is done: 3-(4-Amino-1-oxo-1,3-dihydro-isoindol-2-yl)-piperidine-2,6-dione or 4-(amino)-2-(2,6-dioxo-(3-piperidyl))-isoindoline-1,3-dione is administered in an amount of from about 1 to about 25 mg per day to reduce or correct wrinkles of patients. For example, clinical studies are performed for 3-(4-amino-1-oxo-1,3-dihydro-isoindol-2-yl)-piperidine-2,6-dione in patients with wrinkles. Patients receive continuous treatment with the compound at a oral dose of about 5 mg daily.

A further series has as its system IFN-γ. Description: IFN-γ production following TCR activation of T-cells. It is filed as cell-based. Particulars: in vitro.
From the text: as §1

Series [2] relates to actinic or senile keratoses. The series can be described thus: Clinical study in patients with actinic or senile keratoses. The class given is in vivo, human. Particulars: oral 25 mg daily, continuous, baseline vs after eight weeks, FIG. 1. Here is the method: 3-(4-Amino-1-oxo-1,3-dihydro-isoindol-2-yl)-piperidine-2,6-dione or 4-(amino)-2-(2,6-dioxo-(3-piperidyl))-isoindoline-1,3-dione is administered in an amount of from about 1 to about 25 mg per day to patients with keratoses for eight weeks, and the responses are subsequently assessed. For example, clinical studies are performed for 3-(4-amino-1-oxo-1,3-dihydro-isoindol-2-yl)-piperidine-2,6-dione in patients with actinic or senile keratoses. Patients receive continuous treatment with the compound at a oral dose of 25 mg daily.

A further series relates to IL6. The series can be described thus: LPS-stimulated production of IL6 by PBMC. It is filed as cell-based. Particulars: for secretion of the pro-inflammatory cytokine IL6: in vitro.
From the text: as §1

The subject of another series is IL2. The series can be described thus: IL2 production following TCR activation of PBMC. Particulars: in vitro. It is filed as cell-based.
From the text: as §1

For series [3], the system named is TNF-α. Description: Inhibition of TNF-α production following LPS-stimulation of human whole blood. Conditions: read-out: IC50 for inhibiting production of TNF-α following LPS-stimulation of human whole blood. The class given is cell-based.
From the text: as §2

The subject of the next series is IL1β. The series can be described thus: LPS-stimulated production of IL1β by PBMC. It is filed as cell-based. Particulars: for secretion of the pro-inflammatory cytokine IL1β: in vitro.
From the text: as §1

A further series concerns T-cells. Description: Proliferation of T-cells following primary induction by T-cell receptor (TCR) activation. It is filed as cell-based. Particulars: in vitro.
From the text: as §1

In series [4] the test system is cardiovascular and respiratory functions. Particulars: dog, in vivo; for arterial blood pressure: 2 mg/kg. Here is the method:
In addition, a safety pharmacology study of 3-(4-amino-1-oxo-1,3-dihydro-isoindol-2-yl)-piperidine-2,6-dione or 4-(amino)-2-(2,6-dioxo-(3-piperidyl))-isoindoline-1,3-dione was conducted in dogs. The effects of the compound on cardiovascular and respiratory functions were examined in anesthetized dogs. One group of Beagle dogs (2/sex/group) received three doses of vehicle only and the other received three ascending doses of 2, 10 and 20 mg/kg of the compound. […] The cardiovascular and respiratory changes induced by the compound were minimal at all doses when compared to the vehicle control group.

The conditions of series [5]: cited from earlier work; for interconversion in acetone: acetone (and other anhydrous) solvent systems.

On to `Nc1cccc2c1CN(C1CCC(=O)NC1=O)C2=O` (stereo not shown) [3-(4-amino-1-oxo-1,3-dihydro-isoindol-2-yl)-piperidine-2,6-dione], for which, in the series on TNF-α mRNA, the “degradation of TNF-α mRNA” value is “enhanced”. In the series with TNF-α [1], the “LPS-stimulated production of TNF-α by PBMC” value was “dose-dependent inhibition”; the IC50 is ~100 nM and 0.0259 µg/mL; the “secretion of the pro-inflammatory cytokine TNF-α” value is listed as “markedly inhibited”. In addition, in the series with IL10, the “production of the anti-inflammatory cytokine IL10” value is reported as “increased” and the “secretion of the anti-inflammatory cytokine IL10” value is “increased”. In addition, in the series on acne, the “acne (size and number of visible cutaneous infections and/or pimples)” value was “significant improvements”. The “clinical response in patients with wrinkles” value in the series with wrinkles is listed as “remarkable clinical benefit”. For the same molecule, the IFN-γ production entry with IFN-γ is given as “induced”. Also, in series [2], the “clinical response in patients with actinic or senile keratoses” value is recorded as “remarkable clinical benefit”. Also, in the series on IL6, the “LPS-stimulated production of IL6 by PBMC” value is recorded as “dose-dependent inhibition” and the “secretion of the pro-inflammatory cytokine IL6” value was “markedly inhibited”. In the series on IL2, the IL2 production result is reported as “induced”. The IC50 in the series on TNF-α [3] is ~480 nM and 0.104 µg/mL. In the series on IL1β, the “LPS-stimulated production of IL1β by PBMC” value is “dose-dependent inhibition” and the “secretion of the pro-inflammatory cytokine IL1β” value is recorded as “markedly inhibited”. In the series on T-cells, the T-cell proliferation entry is “induced”. For the same molecule, in series [4], the “deviations in femoral blood flow, respiratory parameters and QTc interval” value is given as “not considered treatment-related”; the arterial blood pressure result is reported as “small transient increase”.
On to `Nc1cccc2c1C(=O)N(C1CCC(=O)NC1=O)C2=O` (stereo not shown) [4-(amino)-2-(2,6-dioxo(3-piperidyl))-isoindoline-1,3-dione], for which the “degradation of TNF-α mRNA” value in the series with TNF-α mRNA is on record as “enhanced”. Moreover, in the series on TNF-α [1], the “LPS-stimulated production of TNF-α by PBMC” value is listed as “dose-dependent inhibition”; the IC50 is ~24 nM and 0.00655 µg/mL; the “secretion of the pro-inflammatory cytokine TNF-α” value was “markedly inhibited”. For the same molecule, in the series on IL10, the “production of the anti-inflammatory cytokine IL10” value is on record as “increased” and the “secretion of the anti-inflammatory cytokine IL10” value is “increased”. For the same molecule, the “acne (size and number of visible cutaneous infections and/or pimples)” value in the series with acne is “significant improvements”. Also, the IFN-γ production entry in the series with IFN-γ is given as “induced”. Further, in the series with IL6, the “LPS-stimulated production of IL6 by PBMC” value was “dose-dependent inhibition” and the “secretion of the pro-inflammatory cytokine IL6” value is “markedly inhibited”. In the series with IL2, the IL2 production entry is reported as “induced”. Moreover, the IC50 in the series with TNF-α [3] was ~25 nM and 0.00683 µg/mL. In the series on IL1β, the “LPS-stimulated production of IL1β by PBMC” value is listed as “dose-dependent inhibition” and the “secretion of the pro-inflammatory cytokine IL1β” value was “markedly inhibited”. The T-cell proliferation result with T-cells is “induced”. Moreover, in series [4], the “deviations in femoral blood flow, respiratory parameters and QTc interval” value is reported as “not considered treatment-related”; the arterial blood pressure entry is “small transient increase”.
Consider `Nc1cccc2c1CN(C1CCC(=O)NC1=O)C2=O` (stereo not shown) [Form B, 3-(4-amino-1-oxo-1,3 dihydro-isoindol-2-yl)-piperidene-2,6-dione], for which the “form conversion upon heating” value in series [5] (175° C. for about five minutes) is “convert to Form F”. For the same molecule, the interconversion in acetone result in [5] was “converts to other forms”. Further, in [5] (aqueous solvent systems), the “form stability / interconversion in aqueous solvent systems” value is given as “converts to Form E”.
Turning to `Nc1cccc2c1CN(C1CCC(=O)NC1=O)C2=O` (stereo not shown) [Form C, 3-(4-amino-1-oxo-1,3 dihydro-isoindol-2-yl)-piperidene-2,6-dione], the hygroscopicity result in series [5] (below about 85% RH) is “not hygroscopic”. In [5], the “form conversion at higher relative humidities” value is on record as “can convert to Form B”.
As for `Nc1cccc2c1CN(C1CCC(=O)NC1=O)C2=O` (stereo not shown) [Form D, 3-(4-amino-1-oxo-1,3 dihydro-isoindol-2-yl)-piperidene-2,6-dione], the “form conversion at higher relative humidities” value in series [5] is given as “convert to Form B”.
In the case of `Nc1cccc2c1CN(C1CCC(=O)NC1=O)C2=O` (stereo not shown) [Form E, 3-(4-amino-1-oxo-1,3 dihydro-isoindol-2-yl)-piperidene-2,6-dione], the “interconversion in THF” value in [5] (THF solvent system) is listed as “Form G”. Besides, the “form conversion upon heating (desolvation)” value in series [5] (about 125° C. for about five minutes) is listed as “convert to Form B”. The interconversion in acetone entry in series [5] is listed as “convert to Form C”.
Consider `O=C1CCC(N2C(=O)c3ccccc3C2=O)C(=O)N1` (stereo not shown) [Thalidomide, thalidomide, reference compound], for which the IC50 in the series on TNF-α [1] is 50.1 µg/mL (≈ 194 µM).
